How the values were obtained:
Format in all cases: physicochemical
[1] = Physical stability of solid state forms at 80° C./75% RH, by FTIR; settings: 1 week (7 days), open glass vials
Description: The physical stability of Forms 1, 2, and 3 was investigated at 80° C./75% RH in order to determine if interconversion was observed. The samples were examined by FTIR after stressing 1 week in open glass vials.

[2] = Solubility of polymorphs at pH 7.4 in phosphate buffer at 25° C.; settings: pH 7.4 phosphate buffer
Description: The solubility of the different polymorphs was determined at pH 7.4 in phosphate buffer at 25° C. Samples were analyzed as a function of time for each form to determine the equilibrium values. The residual solids from each sample were analyzed to verify that the form was unchanged during the experiment. The concentration (mg/mL) versus time data is listed below for each form: […]

[3] = Slurry stability study at room temperature (25° C.), 4 weeks, resulting form by FTIR; settings: for Final form after slurry: 25° C., 4 weeks, FTIR
Description: Slurry stability Maturation studies were initially conducted for the purpose of identifying the most […] stable form at room temperature (25° C.).
In this set of experiments, both the individual forms and mixtures of forms were slurried in several solvents for 4 weeks, then filtered and analyzed to determine the resulting form. The first set of experiments included pure Form 1, Form 2, Form 3, and mixtures of these forms in equal amounts. The solvents included methanol, ethyl acetate, MEK, and methyl THF in order to investigate a range of solvent polarity. Additional experiments were conducted with a mixture of Form 1 and Form 4 in MEK and methanol.
Analysis was performed by FTIR due to ease of analysis for small quantities. It is interesting to note that the acid carbonyl is shifted to a different location for each polymorph. The results for the first set of experiments are listed below, comparing the starting form with the final form.

[4] = Slurry conversion studies at 40-70° C. with Forms 1 and 2
Description: Slurry conversation studies were also conducted at 40-70° C. with Forms 1 and 2 to determine a transition temperature between the forms. A mixture of Form 1 and Form 2 at a (1:1 ratio) was slurried at 40° C., 50° C., 60° C., and 70° C. in two different solvents at each temperature and then analyzed to determine the direction of transformation. At 40° C. and 50° C., Methanol and MEK were used. At 60° C. and 70° C. MEK and 1-Pentanol were used.

[5] = Dynamic vapor sorption (DVS); settings: 25° C.
Description: Moisture sorption/desorption isotherms are recorded on a DVS-1 from SURFACE MEASUREMENT SYSTEMS. Two cycles are run at 25° C., in which the Relative Humidity (RH) is stepped from 0 to 95% and back to 0%. The data is evaluated with the software DVSWin V. 2.15.

In the case of COc1ccc(C(=O)NC2(C(=O)O)Cc3ccccc3C2)cc1OCCc1cccc(C)c1 [Form 1, 2-(4-methoxy-3-(3-methylphenethoxy)benzamido)-2,3-dihydro-1H-indene-2-carboxylic acid], the “Change in FTIR spectrum after storage” value [1] is reported as “unchanged FTIR”, the “Concentration (solubility)” value ([2]; 1 hr) is reported as 42 µg/mL and the “Concentration (solubility)” value ([2]; 2 hr) is reported as 41 µg/mL. The “Concentration (solubility)” value ([2]; 3 hr) was 42 µg/mL, the “Concentration (equilibrium solubility)” value ([2]; 24 hr) was 42 µg/mL and the “Relative stability of the crystal forms” value ([3]; room temperature (25° C.), from slurry data set) was “most stable form”. The “Final form after slurry” value ([3]; slurried in MEK) was “Form 1”, the “Final form after slurry” value ([3]; slurried in ethyl acetate) was “Form 1” and the “Final form after slurry” value ([3]; slurried in methanol) was “Form 1”. For the same compound, the “Final form after slurry” value ([3]; slurried in methyl THF) was “Form 1”, the “Resulting form after slurry” value ([4]; slurried in 1-pentanol at 60° C.) was “converts to crystalline Form 2” and the “Resulting form after slurry” value ([4]; slurried in 1-pentanol at 70° C.) was “converts to crystalline Form 2”. For the same compound, the “Resulting form after slurry” value ([4]; slurried in MEK at 60° C.) was “converts to crystalline Form 2”, the “Resulting form after slurry” value ([4]; slurried in MEK at 70° C.) was “converts to crystalline Form 2” and the Reversible water uptake [5] was “less than 1%”.

From patent US20220064105A1, “CRYSTALLINE EDG-2 RECEPTOR ANTAGONIST AND METHODS OF MAKING” (Sanofi, priority 2020, published 2022)
